Active and inactive are the calls of the source.
Tests used:
[1] = HEp-2 cell cytotoxicity, dose response, cytotoxicity control for RSV inhibitor project, HTS (AID 2410); format: functional; settings: human respiratory syncytial virus
HeLa = assay: HeLa cell cytotoxicity, dose response, cytotoxicity control for MITF activator project, CellTiter-Glo luminescence, cherry-pick samples (AID 540259); format: functional, cell-based; settings: Homo sapiens
[2] = inhibitors of Vif binding to APOBEC3G peptide, primary screen, biochemical, TR-FRET, GST-Vif 1-94, biotin-A3G peptide, dose response retest (AID 1117319); format: functional;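 also: TR-FRET signal of purified GST-Vif binding a biotinylated A3G peptide; inhibitors lower the FRET signal by blocking Vif and A3G binding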
[3] = molecular target: T1, Replicative DNA helicase DnaB (Mycobacterium tuberculosis, UniProt P9WMR3); assay: DnaB intein splicing inhibitors, dose response, biochemical, cell-free fluorescence (AID 449749); format: functional
T1 sequence (P9WMR3 whole entry): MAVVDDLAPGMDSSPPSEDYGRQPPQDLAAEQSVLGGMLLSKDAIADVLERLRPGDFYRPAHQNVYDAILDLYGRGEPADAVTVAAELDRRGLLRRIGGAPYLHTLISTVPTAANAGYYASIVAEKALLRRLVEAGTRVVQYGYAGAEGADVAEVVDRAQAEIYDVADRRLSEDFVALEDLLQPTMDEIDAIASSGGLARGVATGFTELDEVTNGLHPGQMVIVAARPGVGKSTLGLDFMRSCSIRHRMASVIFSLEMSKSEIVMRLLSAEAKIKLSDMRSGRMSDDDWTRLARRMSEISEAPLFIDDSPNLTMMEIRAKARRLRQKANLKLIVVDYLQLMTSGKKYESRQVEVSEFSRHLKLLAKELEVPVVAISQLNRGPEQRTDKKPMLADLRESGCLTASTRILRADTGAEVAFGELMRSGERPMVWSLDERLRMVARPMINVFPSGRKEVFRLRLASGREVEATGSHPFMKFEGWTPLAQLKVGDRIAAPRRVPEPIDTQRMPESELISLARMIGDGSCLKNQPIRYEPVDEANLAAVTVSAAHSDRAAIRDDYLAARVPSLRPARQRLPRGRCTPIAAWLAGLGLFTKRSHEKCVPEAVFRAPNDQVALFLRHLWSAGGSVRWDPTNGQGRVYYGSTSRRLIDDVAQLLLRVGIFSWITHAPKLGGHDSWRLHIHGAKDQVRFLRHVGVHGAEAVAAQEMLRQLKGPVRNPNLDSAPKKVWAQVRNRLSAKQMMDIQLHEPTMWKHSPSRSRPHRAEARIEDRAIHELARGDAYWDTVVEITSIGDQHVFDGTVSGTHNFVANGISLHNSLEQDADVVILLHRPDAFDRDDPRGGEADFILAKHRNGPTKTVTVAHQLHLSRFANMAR

Protein RecA = molecular target: T2, Protein RecA (Mycobacterium tuberculosis, UniProt P9WHJ3); assay: Fluorescence Cell-Free Homogeneous Dose Retest to Identify Inhibitors of RecA-Intein Splicing Activity. [Related pubchem assays (depositor defined):AID2097, AID2223, AID489010, AID492950]; format: functional
T2 sequence (P9WHJ3 whole entry): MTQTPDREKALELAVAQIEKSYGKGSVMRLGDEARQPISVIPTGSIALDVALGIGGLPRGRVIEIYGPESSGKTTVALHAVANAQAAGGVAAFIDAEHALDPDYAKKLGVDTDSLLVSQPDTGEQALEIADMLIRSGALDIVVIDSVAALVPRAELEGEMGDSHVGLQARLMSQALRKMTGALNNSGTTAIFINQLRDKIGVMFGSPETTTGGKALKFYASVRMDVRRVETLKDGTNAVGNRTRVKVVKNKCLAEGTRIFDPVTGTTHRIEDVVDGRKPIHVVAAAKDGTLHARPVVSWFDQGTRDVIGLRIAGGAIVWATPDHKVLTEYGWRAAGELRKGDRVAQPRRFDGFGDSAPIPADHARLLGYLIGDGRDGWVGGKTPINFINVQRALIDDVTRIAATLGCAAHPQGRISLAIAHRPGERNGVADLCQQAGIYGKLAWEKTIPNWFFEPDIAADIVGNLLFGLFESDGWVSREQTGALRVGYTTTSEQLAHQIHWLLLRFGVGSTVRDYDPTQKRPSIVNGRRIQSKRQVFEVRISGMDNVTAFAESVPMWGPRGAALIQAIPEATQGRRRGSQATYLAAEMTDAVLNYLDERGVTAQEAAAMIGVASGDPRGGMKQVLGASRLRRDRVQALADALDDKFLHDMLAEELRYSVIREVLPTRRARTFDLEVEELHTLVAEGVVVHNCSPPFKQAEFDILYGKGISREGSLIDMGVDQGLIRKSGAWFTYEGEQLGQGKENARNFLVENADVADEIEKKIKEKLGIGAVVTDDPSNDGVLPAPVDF

Genome polyprotein = Genome polyprotein (dengue virus type 2, UniProt P29990); assay: Dengue-2 NS5 methyltransferase inhibitors, primary screen, biochemical, confirmation dose response (AID 588689); format: functional
[4] = molecular target: Intestinal-type alkaline phosphatase (Mus musculus, UniProt P24822); assay: PubChem AID 488785; format: functional
[5] = molecular target: T3, Alkaline phosphatase, tissue-nonspecific isozyme (Homo sapiens, UniProt P05186); assay: TNAP enzyme inhibition by screening hits, dose response, selectivity assay for mouse IAP inhibitor project, biochemical, human TNAP, uHTS hits (AID 488906); format: functional
T3 sequence (P05186 whole entry): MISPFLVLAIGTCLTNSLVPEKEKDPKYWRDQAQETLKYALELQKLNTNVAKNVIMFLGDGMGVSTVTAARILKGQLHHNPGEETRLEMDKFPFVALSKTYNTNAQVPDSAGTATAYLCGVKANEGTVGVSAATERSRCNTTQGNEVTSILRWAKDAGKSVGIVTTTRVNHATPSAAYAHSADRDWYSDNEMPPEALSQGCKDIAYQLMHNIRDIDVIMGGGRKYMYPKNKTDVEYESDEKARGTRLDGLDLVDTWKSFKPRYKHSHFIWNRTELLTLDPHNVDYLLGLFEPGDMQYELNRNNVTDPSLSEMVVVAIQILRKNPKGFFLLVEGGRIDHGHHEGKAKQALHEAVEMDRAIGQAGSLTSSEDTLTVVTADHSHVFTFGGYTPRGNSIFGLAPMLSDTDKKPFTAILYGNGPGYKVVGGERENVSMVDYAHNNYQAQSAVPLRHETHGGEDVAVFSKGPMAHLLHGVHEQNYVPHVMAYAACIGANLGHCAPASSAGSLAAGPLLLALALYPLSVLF

[6] = molecular target: Intestinal-type alkaline phosphatase (Homo sapiens, UniProt P09923); assay: inhibition of human intestinal alkaline phosphatase – biochemical, dose response (AID 488876); format: functional
HEK293 [7] = assay: NOD1 signaling inhibitors, primary screen, cell-based, luminescence, uHTS (AID 1578); format: functional; settings: Homo sapiens
BJ [8] = assay: cytotoxicity toward BJ-TERT fibroblasts, dose response, cell-based, RAS-independent, luminescence (AID 1933); format: functional; settings: Homo sapiens
HEK293 [9] = assay: cells; format: functional, cell-based; settings: Homo sapiens
BJ [10] = assay: cells; format: functional, cell-based; settings: Homo sapiens
HEK293 [11] = assay: cells; format: functional, cell-based; settings: Homo sapiens; remark: listed apart in the source
HEK293 [12] = assay: NOD2 signaling inhibitors in MDP-stimulated cells, cell-based, uHTS, luminescence (AID 2001); format: functional; settings: Homo sapiens
BJ [13] = assay: cytotoxicity toward BJ-TERT-LT-ST fibroblasts, dose response, cell-based, RAS-independent, luminescence (AID 1935); format: functional; settings: Homo sapiens;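 also: BJ fibroblasts immortalized with TERT plus LT and ST oncogenes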
[14] = cytotoxicity toward DRD oncogenic fibroblasts, dose response, cell-based, non-viral oncogenic, luminescence (AID 1934); format: functional; settings: Homo sapiens
Cytochrome P450 2C9 = Cytochrome P450 2C9 (Homo sapiens, UniProt P11712)
Large T antigen = Large T antigen (Simian virus 40, UniProt P03070); format: functional, Betapolyomavirus macacae;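 also: Confirmatory-stage PubChem screen for compounds that inhibit SV40 T antigen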
[15] = molecular target: Luciferin 4-monooxygenase (Photinus pyralis, UniProt P08659); assay: firefly luciferase enzyme inhibitors, dose response, biochemical, luminescence (AID 1891)
[16] = Luminescence Cell-Based Dose Confirmation HTS to Identify Inhibitors of Platelet Dense Granule Release. [Related pubchem assays: 1663 (Primary HTS), 1678 (Summary of Project)]; format: functional
[17] = molecular target: T4, Rac GTPase-activating protein 1 (Homo sapiens, UniProt Q9H0H5); assay: MgcRacGAP GTPase-activating activity inhibitors, confirmation, biochemical, ADP Hunter fluorescence, primary and confirmatory (AID 624330); format: functional
T4 sequence (Q9H0H5 whole entry): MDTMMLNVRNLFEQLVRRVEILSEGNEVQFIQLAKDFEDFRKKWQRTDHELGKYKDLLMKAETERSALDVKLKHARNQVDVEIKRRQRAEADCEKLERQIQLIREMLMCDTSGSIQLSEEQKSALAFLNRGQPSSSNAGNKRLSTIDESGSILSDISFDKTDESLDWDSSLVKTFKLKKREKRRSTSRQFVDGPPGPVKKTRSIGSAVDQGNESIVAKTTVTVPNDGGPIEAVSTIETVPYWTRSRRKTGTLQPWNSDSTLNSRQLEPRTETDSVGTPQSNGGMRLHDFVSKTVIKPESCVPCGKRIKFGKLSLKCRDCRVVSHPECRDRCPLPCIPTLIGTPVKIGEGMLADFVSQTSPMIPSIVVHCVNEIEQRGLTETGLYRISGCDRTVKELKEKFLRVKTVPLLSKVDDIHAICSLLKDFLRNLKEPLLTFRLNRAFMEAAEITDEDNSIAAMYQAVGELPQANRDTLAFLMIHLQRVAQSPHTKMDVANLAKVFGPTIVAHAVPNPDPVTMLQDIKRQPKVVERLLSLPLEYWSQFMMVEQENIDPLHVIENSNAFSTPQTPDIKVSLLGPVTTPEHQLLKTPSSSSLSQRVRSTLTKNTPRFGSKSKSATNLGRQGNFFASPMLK

Intestinal-type alkaline phosphatase (Mus musculus, UniProt P24822), sequence (P24822 whole entry): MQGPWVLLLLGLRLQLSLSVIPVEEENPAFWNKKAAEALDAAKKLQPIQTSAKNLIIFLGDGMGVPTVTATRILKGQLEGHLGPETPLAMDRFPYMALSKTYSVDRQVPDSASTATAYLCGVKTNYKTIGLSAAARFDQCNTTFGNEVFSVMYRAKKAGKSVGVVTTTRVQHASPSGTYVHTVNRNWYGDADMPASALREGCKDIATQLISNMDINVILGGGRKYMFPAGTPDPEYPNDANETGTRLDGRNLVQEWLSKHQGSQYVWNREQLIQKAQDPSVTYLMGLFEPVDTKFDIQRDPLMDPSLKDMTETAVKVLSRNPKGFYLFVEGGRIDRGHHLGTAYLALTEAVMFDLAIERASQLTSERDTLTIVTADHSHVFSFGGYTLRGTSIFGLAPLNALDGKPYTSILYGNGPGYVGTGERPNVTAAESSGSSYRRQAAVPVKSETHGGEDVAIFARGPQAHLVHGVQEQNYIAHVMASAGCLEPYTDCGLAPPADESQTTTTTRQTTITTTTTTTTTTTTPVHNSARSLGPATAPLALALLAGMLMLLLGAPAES
Intestinal-type alkaline phosphatase (Homo sapiens, UniProt P09923), sequence (P09923 whole entry): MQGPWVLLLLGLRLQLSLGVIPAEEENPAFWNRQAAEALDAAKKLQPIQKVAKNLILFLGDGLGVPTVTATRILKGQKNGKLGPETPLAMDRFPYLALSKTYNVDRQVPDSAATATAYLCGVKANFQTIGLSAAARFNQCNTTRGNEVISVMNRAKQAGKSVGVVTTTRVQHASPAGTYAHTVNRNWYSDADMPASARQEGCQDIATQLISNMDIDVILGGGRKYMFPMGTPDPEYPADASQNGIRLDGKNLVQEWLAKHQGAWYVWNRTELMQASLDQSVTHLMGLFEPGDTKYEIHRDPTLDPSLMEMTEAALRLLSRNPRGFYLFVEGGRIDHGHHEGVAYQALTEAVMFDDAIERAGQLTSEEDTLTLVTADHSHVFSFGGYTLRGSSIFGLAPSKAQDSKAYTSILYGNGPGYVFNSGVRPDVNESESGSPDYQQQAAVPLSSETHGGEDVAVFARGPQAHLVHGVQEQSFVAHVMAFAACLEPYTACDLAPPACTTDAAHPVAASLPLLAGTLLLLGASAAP
Genome polyprotein, sequence (P29990 2492-3391 limits assumed): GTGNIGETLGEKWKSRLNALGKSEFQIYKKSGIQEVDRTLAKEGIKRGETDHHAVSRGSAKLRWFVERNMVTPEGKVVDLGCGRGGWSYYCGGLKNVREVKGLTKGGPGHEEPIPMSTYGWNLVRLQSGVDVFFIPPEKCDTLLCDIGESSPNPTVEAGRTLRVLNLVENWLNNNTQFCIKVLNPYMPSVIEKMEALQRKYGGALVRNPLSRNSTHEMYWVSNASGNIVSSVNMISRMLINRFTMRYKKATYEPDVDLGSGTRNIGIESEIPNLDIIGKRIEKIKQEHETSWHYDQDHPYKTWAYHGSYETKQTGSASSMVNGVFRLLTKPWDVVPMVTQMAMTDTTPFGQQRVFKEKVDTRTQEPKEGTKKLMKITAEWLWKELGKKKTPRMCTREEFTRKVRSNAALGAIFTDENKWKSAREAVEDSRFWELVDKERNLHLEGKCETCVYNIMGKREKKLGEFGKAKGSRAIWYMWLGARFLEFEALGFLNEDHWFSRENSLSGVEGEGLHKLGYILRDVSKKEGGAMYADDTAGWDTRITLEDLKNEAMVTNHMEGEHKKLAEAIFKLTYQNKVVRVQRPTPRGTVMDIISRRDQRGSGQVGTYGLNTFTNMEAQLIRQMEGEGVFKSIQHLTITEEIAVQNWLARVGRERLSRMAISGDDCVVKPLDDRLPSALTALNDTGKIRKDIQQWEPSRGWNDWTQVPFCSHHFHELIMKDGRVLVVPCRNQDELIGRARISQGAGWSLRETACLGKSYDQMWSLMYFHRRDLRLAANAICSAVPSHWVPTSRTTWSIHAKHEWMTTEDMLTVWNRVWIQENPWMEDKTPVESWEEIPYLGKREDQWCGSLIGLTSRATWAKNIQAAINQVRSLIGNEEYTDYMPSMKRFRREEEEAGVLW
Luciferin 4-monooxygenase, sequence (P08659 whole entry): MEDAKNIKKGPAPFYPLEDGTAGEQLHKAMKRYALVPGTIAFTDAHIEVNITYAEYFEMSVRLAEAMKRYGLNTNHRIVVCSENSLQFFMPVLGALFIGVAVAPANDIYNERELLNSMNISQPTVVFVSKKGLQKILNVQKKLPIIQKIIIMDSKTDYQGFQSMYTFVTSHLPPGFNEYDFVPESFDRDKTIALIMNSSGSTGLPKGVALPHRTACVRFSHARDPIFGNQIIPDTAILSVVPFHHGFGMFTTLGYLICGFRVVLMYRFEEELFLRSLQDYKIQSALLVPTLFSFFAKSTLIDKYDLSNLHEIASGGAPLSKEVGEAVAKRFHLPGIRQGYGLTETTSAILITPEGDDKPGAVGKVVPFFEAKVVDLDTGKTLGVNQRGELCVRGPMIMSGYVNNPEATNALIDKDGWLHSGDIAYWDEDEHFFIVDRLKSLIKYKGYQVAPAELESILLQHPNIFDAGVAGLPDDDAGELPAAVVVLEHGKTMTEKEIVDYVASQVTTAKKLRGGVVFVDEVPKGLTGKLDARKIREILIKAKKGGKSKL
Large T antigen, sequence (P03070 whole entry): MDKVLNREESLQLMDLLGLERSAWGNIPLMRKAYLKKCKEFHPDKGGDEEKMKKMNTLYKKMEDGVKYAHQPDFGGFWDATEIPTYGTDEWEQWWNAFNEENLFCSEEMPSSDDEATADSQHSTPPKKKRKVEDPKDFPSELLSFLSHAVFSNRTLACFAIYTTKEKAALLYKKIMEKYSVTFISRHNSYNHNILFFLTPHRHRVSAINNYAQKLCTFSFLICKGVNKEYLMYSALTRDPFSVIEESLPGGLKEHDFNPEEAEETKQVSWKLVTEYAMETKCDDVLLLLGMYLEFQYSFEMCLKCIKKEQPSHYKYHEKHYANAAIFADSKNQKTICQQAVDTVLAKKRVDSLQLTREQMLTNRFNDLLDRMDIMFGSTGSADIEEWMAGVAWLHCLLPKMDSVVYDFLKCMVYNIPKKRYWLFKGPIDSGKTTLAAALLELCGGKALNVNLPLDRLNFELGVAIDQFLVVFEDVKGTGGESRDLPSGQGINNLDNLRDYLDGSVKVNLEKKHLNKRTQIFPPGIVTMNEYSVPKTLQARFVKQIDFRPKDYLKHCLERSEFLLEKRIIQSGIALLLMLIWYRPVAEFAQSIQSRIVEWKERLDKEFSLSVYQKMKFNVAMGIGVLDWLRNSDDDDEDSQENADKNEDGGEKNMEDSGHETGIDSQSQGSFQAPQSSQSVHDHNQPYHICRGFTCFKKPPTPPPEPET
Cytochrome P450 2C9, sequence (P11712 whole entry): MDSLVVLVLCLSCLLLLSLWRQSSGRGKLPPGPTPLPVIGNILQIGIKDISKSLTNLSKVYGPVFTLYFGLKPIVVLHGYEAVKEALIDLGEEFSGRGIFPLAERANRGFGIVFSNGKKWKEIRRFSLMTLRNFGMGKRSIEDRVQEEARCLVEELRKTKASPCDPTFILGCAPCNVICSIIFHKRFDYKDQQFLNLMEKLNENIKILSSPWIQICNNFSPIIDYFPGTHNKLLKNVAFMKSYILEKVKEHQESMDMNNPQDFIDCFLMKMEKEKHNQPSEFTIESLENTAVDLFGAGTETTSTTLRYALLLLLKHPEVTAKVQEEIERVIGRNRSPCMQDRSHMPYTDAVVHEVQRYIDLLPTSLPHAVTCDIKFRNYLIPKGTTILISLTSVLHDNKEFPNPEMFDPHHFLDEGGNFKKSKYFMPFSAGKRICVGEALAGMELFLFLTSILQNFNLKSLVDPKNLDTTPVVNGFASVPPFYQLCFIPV

Q: Which results are given for `COc1ccc(-c2ccc3c(N)c(C(=O)NC(C)C)sc3n2)cc1OC`?
A: CC50 [1]: > 50 µM (active); IC50 (cells): 35.9 µM (active)

Q: With `O=S(=O)(c1ccc2c(c1)OCCO2)N1CCC(c2nc(O)c3nnn(Cc4c(F)cccc4Cl)c3n2)CC1` as the compound, how does the CC50 [1] read?
A: 34.2 µM (active)

Q: What about the IC50 (cells) of the same compound?
A: 9.34 µM (active)

Q: Which AC50 (HeLa) does the source give for `O=c1oc(-c2cccs2)nc2sc3c(c12)CCCCC3` here?
A: 47.1 µM (active)

Q: Which CC50 [1] does the source give for `COc1ccccc1-c1cc2nc(C)cc(C)n2n1` here?
A: 22.5 µM (active)

Q: And the IC50 (cells)?
A: 18.8 µM (active)

Q: With `C/C(=C\C(=O)c1ccc(Br)cc1)N1CCCCC1` as the compound, how does the IC50 [2] read?
A: > 100 µM (active)

Q: For `Cc1nn(-c2ccccc2)c2c1C(c1cccs1)C(C#N)=C(N)O2` (configuration not stated), which AC50 [3] is on record?
A: 7 µM (active)

Q: What about the EC50 (Protein RecA) of the same compound?
A: 1.83 µM (active)

Q: What about the IC50 (Genome polyprotein) of the same compound?
A: > 100 µM (active)

Q: With `Cc1ccc(OC(=O)c2cccc(S(=O)(=O)N3CCCC3)c2)c(-n2nc3ccccc3n2)c1` as the compound, how does the AC50 (HeLa) read?
A: 260 µM (active)

Q: Which IC50 (Genome polyprotein) does the source give for `Cc1ccc(C(c2c(O)n3c(nc2=O)SCC3)c2c(O)n3c(nc2=O)SCC3)cc1` here?
A: 84.2 µM (active)

Q: For `C=CCn1cc(CN2CCC(C(=O)Nc3cccc(-c4cccc(Cl)c4)c3)CC2)c(C)n1`, which IC50 [4] is on record?
A: 10.3 µM (active)

Q: And the IC50 [5]?
A: 5.84 µM (active)

Q: What about the IC50 [6] of the same compound?
A: 14.3 µM (active)

Q: Which EC50 (HEK293 [7]) does the source give for `CCc1nc(N2CCN(C(=O)CCl)CC2)c2c3c(sc2n1)CC(C)CC3` (configuration not stated) here?
A: > 20 µM (inactive)

Q: And the EC50 (BJ [8])?
A: 1.62 µM (active)

Q: What about the IC50 (HEK293 [9]) of the same compound?
A: 8.57 µM (active)

Q: And the EC50 (BJ [10])?
A: 9.44 µM (inconclusive)

Q: What about the IC50 (HEK293 [11]) of the same compound?
A: > 20 µM (inactive)

Q: And the IC50 (HEK293 [12])?
A: 12 µM (inactive)

Q: And the EC50 (BJ [13])?
A: 5.72 µM (inconclusive)

Q: And the EC50 [14]?
A: 5.84 µM (active)

Q: And the AC50 [3]?
A: 1.92 µM (active)

Q: What about the EC50 (Protein RecA) of the same compound?
A: 0.729 µM (active)

Q: For `Cc1ccc(-n2nnnc2SCn2nnc3ccccc3c2=O)cc1`, which IC50 [2] is on record?
A: > 100 µM (active)

Q: Which AC50 (HeLa) does the source give for `Clc1ccc(-c2nnc(CCc3ccccc3)o2)c(Cl)c1` here?
A: 78.9 µM (active)

Q: What about the AC50 (Cytochrome P450 2C9) of the same compound?
A: 39.8 µM (inconclusive)

Q: For `CCN(CC(=O)Nc1c(F)cccc1F)C(=O)CSC(=S)N1CCCC1`, which IC50 [2] is on record?
A: > 100 µM (active)

Q: For `Cc1nonc1C(=O)N/N=C/c1ccc(O)c(O)c1`, which IC50 (Large T antigen) is on record?
A: 3.81 µM (active)

Q: What about the EC50 [15] of the same compound?
A: 4.26 µM (active)

Q: And the EC50 [16]?
A: 0.868 µM (active)

Q: And the IC50 [4]?
A: 9.92 µM (active)

Q: And the IC50 [5]?
A: 16.8 µM (active)

Q: And the IC50 [6]?
A: 14 µM (active)

Q: What about the IC50 [17] of the same compound?
A: 18.6 µM (active)

Q: Which results are given for `COC(=O)N/N=C/c1ccc(-c2cccc(Cl)c2)o1`?
A: CC50 [1]: 28.3 µM (active); IC50 (cells): 24.9 µM (active)

Q: For `O=C1c2cccc(O)c2C(=O)c2c(O)cc(CO)cc21` [ALOE-EMODIN], which IC50 [4] is on record?
A: 2.88 µM (active)

Q: What about the IC50 [5] of the same compound?
A: > 100 µM (inactive)

Q: What about the IC50 [6] of the same compound?
A: > 100 µM (inactive)
